In patent publication US7799757B2, “Analogs of parathyroid hormone and PTH-related protein as bone anabolic agents” (priority 2002, dated 2010):
Non-standard residues stand in square brackets, D forms with d. Residues, ends and D or L forms follow the SMILES beside them. No end group written: not given here. 2Nal = N[C@@H](Cc1ccc2ccccc2c1)C(=O)O; 2Thi = N[C@@H](Cc1cccs1)C(=O)O; β3hL = CC(C)C[C@H](N)CC(=O)O; Nle = CCCC[C@H](N)C(=O)O; βAla = NCCC(=O)O

Assays:
SaOS-2/B10 cells = assay type: binding; conditions: 2 h
Description: SaOS-2/B10 cells were maintained in RPMI1640 medium supplemented with 10% fetal bovine serum (FBS) and 2 mM glutamine at 37° C. in a humidified atmosphere of 5% CO2 in air. The medium was changed every three to four days, and the cells were subcultured every week by trypsinization.
SaOS-2/B10 cells were maintained for four days after they had reached confluence. The medium was replaced with 5% FBS […] medium and incubated for 2 hrs at room temperature with 10×10^4 cpm mono-^125I-[Nle^8,18,Tyr^34(3-^125I)]bPTH(1-34)NH2 in the presence or absence of a competing tested polypeptide of the invention. The cells were washed four times with ice-cold PBS and lysed with 0.1M NaOH, and the radioactivity associated with the cells was counted in a scintillation counter. Synthesis of the radiolabelled [Nle^8,18,Tyr^34(3-^125I)]bPTH(1-34)NH2 was carried out as described in Goldman M. E., et al., Endocrinology, (1988), 123, 1468-1475.
The binding assay was conducted on the polypeptides of the invention having SEQ ID NO:5, 6, 7, 9, 10, 11, and 12.

[1] = tested on: adenylate cyclase in SaOS-2/B10 cells; assay: Stimulation of adenylate cyclase activity in SaOS-2/B10 cells; assay type: cell-based; conditions: 1 mM IBMX, 5 min incubation, read-out: EC50 (half maximal stimulation of adenylate cyclase)
Description: The adenylate cyclase activity induced by each of the tested polypeptides of the invention was also measured in SaOS-2/B 10 cells as described previously (Rodain et al., J. Clin. Invest. (1983) 72,1511; Goldman, et al., Endocrinology (1988) 123, 1468). Conflúnt SaOS-2/B10 cells in 24 wells plates were incubated with 0.5 μCi [^3H]adenine (26.9 Ci/mmol, New England Nuclear, Boston, Mass. in fresh medium at 37° C. for 2 hrs. and washed twice with Hank's solution. The cells were treated with 1 mM IBMX (isobutylmethylxanthine, Sigma, St. Louis, Mo.) in fresh medium for 15 min. and a tested PTH analog was added to the medium to incubate for 5 min. The reaction was stopped by the addition of 1.2M TCA followed by sample neutralization with 4N KOH. Cyclic AMP was isolated by the two-column chromatographic method (Salomon, et al., Anal. Biochem. (1974) 58, 541). The radioactivity was counted in a scintillation counter (Liquid scintillation counter 2200CA, PACKARD, Downers Grove, Ill.).

[2] = molecular target: T1, recombinant hPTH1-receptor (Homo sapiens, UniProt Q03431); assay: Radioreceptor competition binding, 125I-PTH(1-34), HEK293/C21 cells; conditions: 125I-PTH(1-34) ~0.1 nM, 2 h at room temperature
T1 construct: expressed in transfected cells
T1 sequence (Q03431 27-593): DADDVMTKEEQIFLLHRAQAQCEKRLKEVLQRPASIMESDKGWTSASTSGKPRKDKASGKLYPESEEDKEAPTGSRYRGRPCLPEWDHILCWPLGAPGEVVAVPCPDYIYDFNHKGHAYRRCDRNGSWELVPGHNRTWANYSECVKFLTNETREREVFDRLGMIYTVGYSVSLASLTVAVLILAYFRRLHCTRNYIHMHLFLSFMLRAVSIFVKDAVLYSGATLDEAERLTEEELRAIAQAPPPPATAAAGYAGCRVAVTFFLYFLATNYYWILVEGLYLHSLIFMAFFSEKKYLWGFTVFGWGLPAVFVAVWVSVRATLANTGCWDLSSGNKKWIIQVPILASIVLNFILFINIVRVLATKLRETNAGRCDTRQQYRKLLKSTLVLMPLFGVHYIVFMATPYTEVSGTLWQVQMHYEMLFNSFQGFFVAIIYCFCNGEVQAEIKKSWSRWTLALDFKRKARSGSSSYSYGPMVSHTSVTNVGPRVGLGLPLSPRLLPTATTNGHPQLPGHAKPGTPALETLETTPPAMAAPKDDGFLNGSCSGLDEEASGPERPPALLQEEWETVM
Description: Human embryonic kidney (HEK293) cells, stably transfected with recombinant hPTH1-receptor (HEK293/C21 cell line, ˜400,000 receptors/cell) (Pines, M., Adams, A. E., Stueckle, S., Bessalle, R., Rashti-Behar, V., Chorev, M., Rosenblatt, M., and Suva, L. J. Endocrinology 1994, 135, 1713-1716), were maintained in D-MEM medium supplemented with 10% fetal bovine serum and […] glutamine at 37° C. in a humidified atmosphere of 95% air/5% CO2. The medium was changed every 3-4 days, and the cells were subcultured every week. Ligand stimulated adenylyl cyclase activity and radioreceptor competition binding assays were performed on confluent cultures, 1-3 days after a change of medium.
[Nle^8,18,Nal^23,Tyr^34]bPTH(1-34)-NH2 was radioiodinated and the crude material was purified as previously described (Roubini, E., Duong, L. T., Gibbons, S. W., Leu, C. T., Caulfield, M. P., Chorev, M., and Rosenblatt, M. Biochemistry 1992, 31, 4026-4033). […] The pure mono-radioiodinated peptide was isolated on an analytical RP-HPLC Vydac Protein C18 column (The Separation Group, Hesperia, Calif.) employing a linear gradient of 36-42% B in A for 30 min (A, 0.1% TFA in water; B, 0.1% TFA in acetonitrile) at a flow rate of 1 mL/min, and monitored at 220 nm. […]

[3] = tested on: PTH-stimulated adenylate cyclase; conditions: background, literature report; cited from earlier work
renal PTH receptors = conditions: background, literature report; cited from earlier work

Molecule	IC50 (SaOS-2/B10 cells) [nM]	EC50 [1] [nM]	also measured
CC[C@H](C)[C@H](NC(=O)[C@H](CO)NC(=O)[C@H](CCCCN)NC(=O)CNC(=O)[C@H](CCCCN)NC(=O)[C@H](CC(=O)O)NC(=O)[C@H](Cc1c[nH]cn1)NC(=O)[C@H](CC(C)C)NC(=O)[C@H](CC(C)C)NC(=O)[C@H](CCC(N)=O)NC(=O)[C@H](Cc1c[nH]cn1)NC(=O)[C@H](CCC(=O)O)NC(=O)[C@H](CO)NC(=O)[C@@H](NC(=O)[C@H](C)N)C(C)C)C(=O)N[C@@H](CCC(N)=O)C(=O)N[C@@H](CC(=O)O)C(=O)N[C@@H](CC(C)C)C(=O)N[C@@H](CCCNC(=N)N)C(=O)N[C@@H](CCCNC(=N)N)C(=O)N[C@@H](CCCNC(=N)N)C(=O)N[C@@H](CCC(=O)O)C(=O)N[C@@H](CC(C)C)C(=O)N[C@@H](CC(C)C)C(=O)N[C@@H](CCC(=O)O)C(=O)N[C@@H](CCCCN)C(=O)N[C@@H](CC(C)C)C(=O)N[C@@H](CC(C)C)C(=O)N[C@@H](CCC(=O)O)C(=O)N[C@@H](CCCCN)C(=O)N[C@@H](CC(C)C)C(=O)N[C@@H](Cc1cccs1)C(=O)N[C@H](C(=O)N[C@@H](C)C(N)=O)[C@@H](C)O [SEQ ID NO: 9, [Glu^22,25,29,Leu^23,28,31,Lys^26,30,Thi^32]hPTHrP(1–34)NH2] (H-AVSEHQLLHDKGKSIQDLRRRELLEKLLEKL[2Thi]TA-NH2; N-terminus assumed)	90	10	–
CCCC[C@H](NC(=O)[C@H](Cc1ccccc1)NC(=O)[C@H](CCC(N)=O)NC(=O)[C@@H](NC(=O)[C@H](CCC(=O)O)NC(=O)[C@H](CO)NC(=O)[C@@H](NC(=O)[C@H](C)N)C(C)C)[C@@H](C)CC)C(=O)N[C@@H](Cc1c[nH]cn1)C(=O)N[C@@H](CC(N)=O)C(=O)N[C@@H](CC(C)C)C(=O)NCC(=O)N[C@@H](CCCCN)C(=O)N[C@@H](Cc1c[nH]cn1)C(=O)N[C@@H](CC(C)C)C(=O)N[C@@H](CO)C(=O)NCCC(=O)N[C@H](CC(=O)NCCC(=O)N[C@@H](CCCNC(=N)N)C(=O)N[C@H](C(=O)N[C@@H](CCC(=O)O)C(=O)N[C@@H](Cc1ccc2ccccc2c1)C(=O)N[C@@H](CC(C)C)C(=O)N[C@@H](CCCNC(=N)N)C(=O)N[C@@H](CCCCN)C(=O)N[C@@H](CCCCN)C(=O)N[C@@H](CC(C)C)C(=O)N[C@@H](CCC(N)=O)C(=O)N[C@@H](CC(=O)O)C(=O)N[C@H](C(=O)N[C@@H](Cc1c[nH]cn1)C(=O)N[C@@H](CC(N)=O)C(=O)N[C@@H](Cc1ccc(O)cc1)C(N)=O)C(C)C)C(C)C)CC(C)C [SEQ ID NO: 17, [Nle^8,β-Ala^17,19,β-hLeu^18,Nal^23,Tyr^34]bPTH(1–34)NH2] (H-AVSEIQF[Nle]HNLGKHLS[βAla][β3hL][βAla]RVE[2Nal]LRKKLQDVHNY-NH2; N-terminus assumed)	–	–	IC50 [2]: > 1000 nM
AVSEHQLLHDKGKSIQDLRRREFLEKLIEKIHTA-NH2 [SEQ ID NO: 12, [Glu^22,25,29,Lys^26,30]hPTHrP(1–34)NH2]	5.5	0.42	–
AVSEHQLLHDKGKSIQDLRRRELLEKLLELLHTA-NH2 [SEQ ID NO: 10, [Glu^22,25,29,Leu^23,28,30,31,Lys^26]hPTHrP(1–34)NH2]	70	5	–
AVSEHQLLHDKGKSIQDLRRRFLLHHLLAELHTA-NH2 [SEQ ID NO: 11, [Leu^23,28,31]hPTHrP(1–34)NH2]	18.3	0.74	–
PTH(1 -25) (SVSEIQLMHNLGKHLNSMERVEWLR; Parathyroid hormone; UniProt P01270 32-56, looked up, fragment) [carboxyl-terminally truncated PTH fragment of residues 1-25]	–	–	activity of carboxyl-terminally truncated PTH [3]: essentially inactive
PTH(25-34) (RKKLQDVHNF; Parathyroid hormone; UniProt P01270 56-65, looked up, fragment) [PTH fragment of residues 25-34]	–	–	receptor binding / affinity for renal PTH receptors (renal PTH receptors): weak receptor binding activity
SVSEIQLMHNLGKHLNSMERVELLEKLLEKLHNF-NH2 [SEQ ID NO: 5, [Glu^25,29,Leu^23,27,31,Lys^30]hPTH(1–34)NH2]	216	24	–
SVSEIQLMHNLGKHLNSMERVELLRKLLQDLHNF-NH2 [SEQ ID NO: 7, [Leu^23,27,31]hPTH(1–34)NH2]	41	1.12	–
SVSEIQLMHNLGKHLNSMERVEWLEKKLEKVHNF-NH2 [SEQ ID NO: 6, [Glu^25,29,Lys^30]hPTH(1–34)NH2]	30	25.5	–
[Tyr^34]bPTH(7-34)NH2	–	–	receptor binding / affinity for renal PTH receptors (renal PTH receptors): moderate affinity; agonist activity [3]: does not have any agonist activity
